Data reported in patent US9993518B2, “Association of a tetrapeptide and a glyceryl ester for treating androgenic alopecia” (PIERRE FABRE DERMO-COSMETIQUE, priority 2014, dated 2018).

How the values were obtained:
Assay type in all cases: cell-based
Conditions in all cases: human hair follicles, 6 h, Control RQ = 1, average of two donors
FZD1 gene = FZD1 gene expression in cultured human hair follicle bulbs, quantitative real-time PCR
Experimental: (§1) Hair follicle bulbs derived from plastic surgery waste (face lifts) from two donors were isolated by microdissection, cultured and treated for 6 hours with the active agents (acetyl tetrapeptide-3, glyceryl laurate, and the association thereof). RNA was extracted, assayed, reverse-transcribed and the expression of a panel of genes expressed in the pilosebaceous follicle was analyzed by quantitative real-time PCR.
(§2) The analysis of the results generated in this study led, for each condition applied and each gene of interest studied, to the calculation of a relative quantity (RQ). RQ corresponds to the expression level of a gene relative to its basal expression level (expression level obtained for the Control condition, the RQ of which is set to 1). Thus, the modulation of a gene's expression level is considered significant when: • the RQ is greater than or equal to 2: the gene is expressed two times more than in the Control condition • the RQ is less than or equal to 0.5: the gene is expressed two times less than in the Control condition.
(§3) The set of results presented below corresponds to the average results obtained for the two donors of the study.

SFRP1 gene = SFRP1 gene expression in cultured human hair follicle bulbs, quantitative real-time PCR
Experimental: as §1, §2, §3

KRT17 gene = KRT17 gene expression in cultured human hair follicle bulbs, quantitative real-time PCR
Experimental: as §1, §2, §3

KRT25 gene = KRT25 gene expression in cultured human hair follicle bulbs, quantitative real-time PCR
Experimental: as §1, §2, §3

KRT27 gene = KRT27 gene expression in cultured human hair follicle bulbs, quantitative real-time PCR
Experimental: as §1, §2, §3

KRT81 gene = KRT81 gene expression in cultured human hair follicle bulbs, quantitative real-time PCR
Experimental: as §1, §2, §3

Question: How did the “RQ (relative quantity), expression level of the FZD1 gene” value (FZD1 gene; 10 μM) turn out when `CCCCCCCCCCCC(=O)OCC(O)CO` (stereo not drawn) [GL, glyceryl laurate] was run?
Answer: The value was 1.3.

Question: What about the “RQ (relative quantity), expression level of the SFRP1 gene” value (SFRP1 gene; 10 μM) of the same molecule?
Answer: Its value is 0.9.

Question: What about the “RQ (relative quantity), expression level of the KRT17 gene” value (KRT17 gene; 10 μM) of the same molecule?
Answer: The value was 1.1.

Question: What about the “RQ (relative quantity), expression level of the KRT25 gene” value (KRT25 gene; 10 μM) of the same molecule?
Answer: The value was 1.3.

Question: What about the “RQ (relative quantity), expression level of the KRT27 gene” value (KRT27 gene; 10 μM) of the same molecule?
Answer: The value was 1.3.

Question: And the “RQ (relative quantity), expression level of the KRT81 gene” value (KRT81 gene; 10 μM)?
Answer: The value was 1.8.

Question: What does the source list for “acetyl tetrapeptide-3 (Ac-KGHK-NH2) [ATP-3, CAS number 827306-88-7]”?
Answer: RQ (relative quantity), expression level of the FZD1 gene (FZD1 gene; 20 μM): 1.2; RQ (relative quantity), expression level of the SFRP1 gene (SFRP1 gene; 20 μM): 1.3; RQ (relative quantity), expression level of the KRT17 gene (KRT17 gene; 20 μM): 0.8; RQ (relative quantity), expression level of the KRT25 gene (KRT25 gene; 20 μM): 1.7; RQ (relative quantity), expression level of the KRT27 gene (KRT27 gene; 20 μM): 1.4; RQ (relative quantity), expression level of the KRT81 gene (KRT81 gene; 20 μM): 1.5
